target: T1, Melatonin receptor (Oryctolagus cuniculus, UniProt Q9BE38)
T1 sequence (Q9BE38 whole entry): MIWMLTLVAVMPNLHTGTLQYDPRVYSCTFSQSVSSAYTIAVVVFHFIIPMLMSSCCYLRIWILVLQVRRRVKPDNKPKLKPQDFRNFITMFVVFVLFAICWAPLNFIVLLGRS

Row | Ki [nM] | SMILES
1 | > 10000 | COc1ccc2[nH]cc(CCO)c2c1
2 | 3000 | CC(=O)NCCc1c[nH]c2ccc(O)cc12 [N-Acetyltryptamine,5-Hydroxy]
3 | 74 | COc1cc2c(CCNC(C)=O)c[nH]c2cc1O [melatonin, 6-Hydroxy]
4 | 460 | COc1cc2[nH]cc(CCNC(C)=O)c2cc1OC [melatonin, 6-Methoxy]

Row | SMILES | Ki [nM]
5 | CC(=O)NCCc1c[nH]c2ccccc12 [N-Acetyltryptamine] | 1600

Source: BindingDB's records for doi:10.1016/0197-0186(94)90100-7 (Rowett Research Institute, 1994)
